The results in this text go back to patent US20250197372A1 (priority 2020, published 2025).

As a reminder, the IC50 is the midpoint of a concentration-inhibition curve.

Format in all cases: biochemical
In assay [1] the target is recombinant human GAA (acid alpha-glucosidase) (Homo sapiens, UniProt P10253). In words: Acid alpha-glucosidase (GAA) assay (4-methylumbelliferyl-alpha-D-pyranoside substrate, fluorescence). The procedure, abridged:
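Recombinant human enzyme preincubated 60 min at 37 °C with compound dilutions, then 4-methylumbelliferyl-alpha-D-pyranoside substrate added for 20 min at 37 °C. Stopped with glycine/NaOH pH 10; methylumbelliferone fluorescence (ex 365, em 440 nm) versus untreated enzyme; IC50 by 4-PL fit.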

In assay [2] the target is rat maltase (partially purified alpha-glucosidase from intestinal rat powder). In words: Intestinal alpha-glucosidase assay, maltose substrate (Glucose GO Kit). In short, it runs like this: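 Partially purified alpha-glucosidase from rat intestinal powder was preincubated 60 min at 37 °C with serial compound dilutions, then given maltose or sucrose and incubated 30 min at 37 °C.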

Assay [3] deals with T1, recombinant alpha-glucosidase II (murine full-length glucosidase II, alpha and beta subunits, Glu 2) (Mus musculus, UniProt Q8BHN3).
T1 construct: made in house; host or cells: HEK-293T cells transduced with BacMam viruses (75% alpha, 25% beta); protein harvested from culture supernatant
The assay is described as follows: Alpha-glucosidase II assay (4-methylumbelliferyl-alpha-D-pyranoside substrate, fluorescence). To be noted: Glucosidase 2; read-out: Glu2 IC50.

Assay [4] has as its target T2, recombinant human GBA (beta-glucocerebrosidase) (Homo sapiens, UniProt P04062).
T2 sequence (P04062 40-536): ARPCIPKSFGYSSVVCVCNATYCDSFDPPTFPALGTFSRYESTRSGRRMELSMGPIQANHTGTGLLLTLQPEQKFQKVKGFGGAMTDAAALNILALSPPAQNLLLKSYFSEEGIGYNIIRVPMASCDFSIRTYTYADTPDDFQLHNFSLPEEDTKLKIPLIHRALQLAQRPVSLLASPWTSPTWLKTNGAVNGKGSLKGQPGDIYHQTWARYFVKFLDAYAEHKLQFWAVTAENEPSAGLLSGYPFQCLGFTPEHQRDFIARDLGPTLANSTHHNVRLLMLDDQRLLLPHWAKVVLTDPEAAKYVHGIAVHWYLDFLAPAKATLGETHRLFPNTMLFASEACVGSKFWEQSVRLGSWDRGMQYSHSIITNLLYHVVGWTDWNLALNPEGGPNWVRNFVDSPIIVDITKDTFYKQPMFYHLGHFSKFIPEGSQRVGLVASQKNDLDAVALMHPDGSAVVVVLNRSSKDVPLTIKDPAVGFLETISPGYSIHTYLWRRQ
In words: Beta-glucocerebrosidase (GBA, glucosylceramidase) assay (4-methylumbelliferyl-beta-D-pyranoside substrate, fluorescence). In short, it runs like this:
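Recombinant human GBA preincubated with compound dilutions 60 min at 37 °C, then 4-methylumbelliferyl-beta-D-pyranoside added for 60 min at 37 °C. Stopped at pH 10 (glycine/NaOH); fluorescence ex 365/em 440 nm. IC50 from 4-PL fit of inhibition relative to untreated enzyme.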

The target of assay [5] is rat sucrase (partially purified alpha-glucosidase from intestinal rat powder) (Rattus norvegicus, UniProt P23739). The assay is described as follows: Intestinal alpha-glucosidase assay, sucrose substrate (Glucose GO Kit). In short, it runs like this: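 Partially purified rat intestinal alpha-glucosidase preincubated 60 min at 37 °C with serial compound dilutions, then sucrose substrate added for 30 min at 37 °C. Reaction stopped by 5 min at 90 °C; released glucose detected with Glucose GO kit. IC50 from 4-PL fit of % inhibition vs concentration.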
Chain of rat sucrase (partially purified alpha-glucosidase from intestinal rat powder) (P23739 whole entry): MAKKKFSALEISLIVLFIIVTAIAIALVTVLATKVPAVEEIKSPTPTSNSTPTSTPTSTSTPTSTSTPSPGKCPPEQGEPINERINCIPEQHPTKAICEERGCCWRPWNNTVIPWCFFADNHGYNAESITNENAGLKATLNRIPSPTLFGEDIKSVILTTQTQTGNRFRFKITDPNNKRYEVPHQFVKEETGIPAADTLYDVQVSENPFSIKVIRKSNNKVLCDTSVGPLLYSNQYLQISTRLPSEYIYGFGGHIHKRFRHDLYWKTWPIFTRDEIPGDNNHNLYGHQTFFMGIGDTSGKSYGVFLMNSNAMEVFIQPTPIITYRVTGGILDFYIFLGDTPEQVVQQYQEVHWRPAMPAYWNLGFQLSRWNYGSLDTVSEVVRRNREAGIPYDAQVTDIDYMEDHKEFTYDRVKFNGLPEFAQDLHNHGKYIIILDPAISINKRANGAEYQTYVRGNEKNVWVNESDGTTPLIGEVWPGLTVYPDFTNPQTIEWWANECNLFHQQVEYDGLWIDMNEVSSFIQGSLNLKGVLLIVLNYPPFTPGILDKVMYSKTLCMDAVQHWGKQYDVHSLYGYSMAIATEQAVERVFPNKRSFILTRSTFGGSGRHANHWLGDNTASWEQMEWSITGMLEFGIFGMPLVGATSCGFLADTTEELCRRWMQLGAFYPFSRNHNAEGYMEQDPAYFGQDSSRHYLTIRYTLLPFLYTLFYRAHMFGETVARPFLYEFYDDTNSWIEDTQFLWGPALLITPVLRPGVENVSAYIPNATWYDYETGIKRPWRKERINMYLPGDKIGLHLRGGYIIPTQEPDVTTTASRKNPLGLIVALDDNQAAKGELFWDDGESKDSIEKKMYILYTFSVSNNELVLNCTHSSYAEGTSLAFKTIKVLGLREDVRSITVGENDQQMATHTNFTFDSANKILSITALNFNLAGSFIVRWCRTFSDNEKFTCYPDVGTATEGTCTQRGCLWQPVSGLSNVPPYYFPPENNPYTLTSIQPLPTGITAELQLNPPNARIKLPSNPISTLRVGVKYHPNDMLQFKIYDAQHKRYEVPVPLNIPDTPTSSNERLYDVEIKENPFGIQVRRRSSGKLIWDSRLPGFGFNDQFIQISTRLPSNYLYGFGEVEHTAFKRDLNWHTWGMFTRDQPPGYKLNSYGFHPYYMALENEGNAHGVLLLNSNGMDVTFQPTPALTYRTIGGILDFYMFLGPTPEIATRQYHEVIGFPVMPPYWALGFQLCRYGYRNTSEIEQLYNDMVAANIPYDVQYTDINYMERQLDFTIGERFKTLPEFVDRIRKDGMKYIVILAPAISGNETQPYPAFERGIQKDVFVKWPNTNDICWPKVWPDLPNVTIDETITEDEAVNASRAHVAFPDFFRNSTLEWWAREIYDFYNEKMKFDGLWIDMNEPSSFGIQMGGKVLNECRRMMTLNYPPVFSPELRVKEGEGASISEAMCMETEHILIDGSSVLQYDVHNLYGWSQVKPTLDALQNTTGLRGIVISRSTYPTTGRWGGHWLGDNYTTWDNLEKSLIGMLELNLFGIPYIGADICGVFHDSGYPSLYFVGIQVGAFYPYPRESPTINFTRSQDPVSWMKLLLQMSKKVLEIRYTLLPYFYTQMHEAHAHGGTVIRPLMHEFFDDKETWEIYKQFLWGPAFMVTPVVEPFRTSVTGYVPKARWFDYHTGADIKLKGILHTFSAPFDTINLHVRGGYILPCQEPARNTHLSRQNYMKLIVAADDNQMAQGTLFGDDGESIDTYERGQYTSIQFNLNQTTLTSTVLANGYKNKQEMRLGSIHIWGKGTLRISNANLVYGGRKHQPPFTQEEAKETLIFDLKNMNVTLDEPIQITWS

T1 sequence (O08795 15-521): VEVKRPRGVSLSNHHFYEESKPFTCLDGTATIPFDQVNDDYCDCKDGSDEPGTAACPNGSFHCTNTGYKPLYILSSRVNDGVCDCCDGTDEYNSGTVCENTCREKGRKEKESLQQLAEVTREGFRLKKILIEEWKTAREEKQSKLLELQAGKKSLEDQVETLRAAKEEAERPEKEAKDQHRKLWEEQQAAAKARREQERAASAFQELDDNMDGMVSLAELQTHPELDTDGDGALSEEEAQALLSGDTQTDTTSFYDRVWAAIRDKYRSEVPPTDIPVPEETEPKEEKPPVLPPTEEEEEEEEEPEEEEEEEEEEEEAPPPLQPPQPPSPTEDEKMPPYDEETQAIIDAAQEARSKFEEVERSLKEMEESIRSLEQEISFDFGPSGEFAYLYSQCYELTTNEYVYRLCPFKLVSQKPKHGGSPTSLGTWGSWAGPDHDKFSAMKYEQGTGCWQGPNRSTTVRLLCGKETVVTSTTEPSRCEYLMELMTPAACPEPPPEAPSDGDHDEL
T1 sequence (Q8BHN3 33-944): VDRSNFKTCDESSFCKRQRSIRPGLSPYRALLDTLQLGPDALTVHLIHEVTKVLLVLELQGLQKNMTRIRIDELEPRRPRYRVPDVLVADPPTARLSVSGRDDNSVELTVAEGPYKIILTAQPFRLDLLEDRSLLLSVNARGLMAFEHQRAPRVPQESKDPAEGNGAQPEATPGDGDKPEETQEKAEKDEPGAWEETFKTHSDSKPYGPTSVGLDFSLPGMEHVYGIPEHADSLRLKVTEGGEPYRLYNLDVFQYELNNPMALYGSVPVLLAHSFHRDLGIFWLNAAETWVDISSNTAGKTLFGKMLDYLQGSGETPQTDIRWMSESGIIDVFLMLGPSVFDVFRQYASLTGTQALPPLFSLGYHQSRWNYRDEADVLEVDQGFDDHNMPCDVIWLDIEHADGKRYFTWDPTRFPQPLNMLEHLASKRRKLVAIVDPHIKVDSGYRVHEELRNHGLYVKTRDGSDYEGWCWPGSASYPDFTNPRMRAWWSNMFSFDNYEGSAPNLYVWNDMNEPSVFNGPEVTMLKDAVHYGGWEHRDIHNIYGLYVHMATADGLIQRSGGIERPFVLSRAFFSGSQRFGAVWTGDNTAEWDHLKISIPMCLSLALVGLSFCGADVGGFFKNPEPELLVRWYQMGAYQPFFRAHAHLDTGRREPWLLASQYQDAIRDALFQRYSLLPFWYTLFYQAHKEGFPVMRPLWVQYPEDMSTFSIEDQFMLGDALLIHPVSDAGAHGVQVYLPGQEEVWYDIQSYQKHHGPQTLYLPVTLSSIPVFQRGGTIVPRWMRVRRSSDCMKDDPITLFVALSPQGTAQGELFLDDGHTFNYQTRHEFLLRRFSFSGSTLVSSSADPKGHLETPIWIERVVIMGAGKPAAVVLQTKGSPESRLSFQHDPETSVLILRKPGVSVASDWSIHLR

For the compound `O=[N+]([O-])c1cc(C2=COCCO2)ccc1NCc1cccc(CN2C[C@H](O)[C@@H](O)[C@H](O)[C@H]2CO)c1` [Compound 1087, (2R,3R,4R,5S)-1-{[3-({[4-(5,6-dihydro-1,4-dioxin-2-yl)-2-nitro-phenyl]amino}methyl)phenyl]methyl}-2-(hydroxymethyl)piperidine-3,4,5-triol], the IC50 in assay [1] was 554 nM; in assay [2], 4 nM; in assay [3], 8110 nM; in assay [4] it was above 100 µM; in assay [5], below 1 nM.

For `O=[N+]([O-])c1cc(-c2ccc[nH]2)ccc1NCc1cccc(CN2C[C@H](O)[C@@H](O)[C@H](O)[C@H]2CO)c1` [Compound 1088, (2R,3R,4R,5S)-2-(hydroxymethyl)-1-{[3-({[2-nitro-4-(1H-pyrrol-2-yl)phenyl]amino}methyl)phenyl]methyl}piperidine-3,4,5-triol], the IC50 is 1950 nM in assay [1]; below 1 nM in assay [2]; 6360 nM in assay [3]; 68.4 µM in assay [4]; below 1 nM in assay [5].

For `O=[N+]([O-])c1cc(-c2cccnn2)ccc1NCc1cccc(CN2C[C@H](O)[C@@H](O)[C@H](O)[C@H]2CO)c1` [Compound 1089, (2R,3R,4R,5S)-2-(hydroxymethyl)-1-{[3-({[2-nitro-4-(pyridazin-3-yl)phenyl]amino}methyl)phenyl]methyl}piperidine-3,4,5-triol], the IC50 in assay [1] stood at 572 nM; in assay [2], 36 nM; in assay [3], 20700 nM; in assay [4], 97.1 µM; in assay [5], 23 nM.

For the compound `O=[N+]([O-])c1cc(-c2ncccn2)ccc1NCc1cccc(CN2C[C@H](O)[C@@H](O)[C@H](O)[C@H]2CO)c1` [Compound 1090, (2R,3R,4R,5S)-2-(hydroxymethyl)-1-{[3-({[2-nitro-4-(pyrimidin-2-yl)phenyl]amino}methyl)phenyl]methyl}piperidine-3,4,5-triol], the IC50 in assay [1] is 509 nM; in assay [2] it was 34 nM; in assay [3], 13800 nM; in assay [4] it was 32.4 µM; in assay [5] it was 2 nM.

As to `OC[C@@H]1[C@@H](O)[C@H](O)[C@@H](O)CN1Cc1ccc(CNc2ccc(CN3CCCO3)cc2)cc1` [Compound 1092, (2R,3R,4R,5S)-2-(hydroxymethyl)-1-({4-[({4-[(1,2-oxazolidin-2-yl)methyl]phenyl}amino)methyl]phenyl}methyl)piperidine-3,4,5-triol], the IC50 was determined as 786 nM in assay [1]; 38 nM in assay [2]; 1780 nM in assay [3]; 121 µM in assay [4]; 48 nM in assay [5].

Turning to `OC[C@@H]1[C@@H](O)[C@H](O)[C@@H](O)CN1Cc1ccc(CNc2ccc(C3=COCCO3)cc2)cc1` [Compound 1093, (2R,3R,4R,5S)-1-{[4-({[4-(5,6-dihydro-1,4-dioxin-2-yl)phenyl]amino}methyl)phenyl]methyl}-2-(hydroxymethyl)piperidine-3,4,5-triol], the IC50 in assay [1] worked out at 108 nM; in assay [2] it was 2 nM; in assay [3], 1040 nM; in assay [4] it was 7.48 µM; in assay [5], 7 nM.

Take `OC[C@@H]1[C@@H](O)[C@H](O)[C@@H](O)CN1Cc1ccc(CNc2ccc(-c3ccc[nH]3)cc2)cc1` [Compound 1094, (2R,3R,4R,5S)-2-(hydroxymethyl)-1-{[4-({[4-(1H-pyrrol-2-yl)phenyl]amino}methyl)phenyl]methyl}piperidine-3,4,5-triol]: the IC50 in assay [1] was found to be 246 nM; in assay [2], 19 nM; in assay [3], 177 nM; in assay [4], 12.3 µM; in assay [5], 57 nM.

For `OC[C@@H]1[C@@H](O)[C@H](O)[C@@H](O)CN1Cc1ccc(CNc2ccc(-c3ncccn3)cc2)cc1` [Compound 1096, (2R,3R,4R,5S)-2-(hydroxymethyl)-1-{[4-({[4-(pyrimidin-2-yl)phenyl]amino}methyl)phenyl]methyl}piperidine-3,4,5-triol], the IC50 in assay [1] worked out at 259 nM; in assay [2] it was 11 nM; in assay [3], 1430 nM; in assay [4], 17.6 µM; in assay [5] it was 23 nM.

For `O=[N+]([O-])c1cc(C2=COCCO2)ccc1NCc1ccc(CN2C[C@H](O)[C@@H](O)[C@H](O)[C@H]2CO)cc1` [Compound 1099, (2R,3R,4R,5S)-1-{[4-({[4-(5,6-dihydro-1,4-dioxin-2-yl)-2-nitrophenyl]amino}methyl)phenyl]methyl}-2-(hydroxymethyl)piperidine-3,4,5-triol], the IC50 in assay [1] was below 1 nM; in assay [2] it was below 1 nM; in assay [3], below 1 nM; in assay [4], 37.1 µM; in assay [5] it was below 1 nM.

Take `O=[N+]([O-])c1cc(-c2ccc[nH]2)ccc1NCc1ccc(CN2C[C@H](O)[C@@H](O)[C@H](O)[C@H]2CO)cc1` [Compound 1100, (2R,3R,4R,5S)-2-(hydroxymethyl)-1-{[4-({[2-nitro-4-(1H-pyrrol-2-yl)phenyl]amino}methyl)phenyl]methyl}piperidine-3,4,5-triol]: the IC50 in assay [1] is 161 nM; in assay [2] it was below 1 nM; in assay [3], below 1 nM; in assay [4] it was 41.7 µM; in assay [5] it was 2 nM.

As for `O=[N+]([O-])c1cc(-c2cccnn2)ccc1NCc1ccc(CN2C[C@H](O)[C@@H](O)[C@H](O)[C@H]2CO)cc1` [Compound 1101, (2R,3R,4R,5S)-2-(hydroxymethyl)-1-{[4-({[2-nitro-4-(pyridazin-3-yl)phenyl]amino}methyl)phenyl]methyl}piperidine-3,4,5-triol], the IC50 in assay [1] was 25 nM; in assay [2], below 1 nM; in assay [3] it was 43 nM; in assay [4], 32.7 µM; in assay [5], 4 nM.

For `O=[N+]([O-])c1cc(-c2ncccn2)ccc1NCc1ccc(CN2C[C@H](O)[C@@H](O)[C@H](O)[C@H]2CO)cc1` [Compound 1102, (2R,3R,4R,5S)-2-(hydroxymethyl)-1-{[4-({[2-nitro-4-(pyrimidin-2-yl)phenyl]amino}methyl)phenyl]methyl}piperidine-3,4,5-triol], the IC50 in assay [1] was 28 nM; in assay [2], below 1 nM; in assay [3] it was 64 nM; in assay [4], 28.7 µM; in assay [5], below 1 nM.

Take `[N-]=[N+]=Nc1ccc(NCCC23CC(CCN4C[C@H](O)[C@@H](O)[C@H](O)[C@H]4CO)(C2)C3)c([N+](=O)[O-])c1` [Compound 1103, (2R,3R,4R,5S)-1-[2-(3-{2-[(4-azido-2-nitrophenyl)amino]ethyl}bicyclo[1.1.1]pentan-1-yl)ethyl]-2-(hydroxymethyl)piperidine-3,4,5-triol]: the IC50 in assay [1] worked out at 2660 nM; in assay [2], 279 nM; in assay [3], 5 nM; in assay [4], 11.9 µM; in assay [5], 569 nM.

On to `[N-]=[N+]=Nc1ccc(NCc2ccc(Cc3ccc(CN4C[C@H](O)[C@@H](O)[C@H](O)[C@H]4CO)cc3)cc2)c([N+](=O)[O-])c1` [Compound 1105, (2R,3R,4R,5S)-1-({4-[(4-{[(4-azido-2-nitrophenyl)amino]methyl}phenyl)methyl]phenyl}methyl)-2-(hydroxymethyl)piperidine-3,4,5-triol], for which the IC50 in assay [1] amounted to 60 nM; in assay [2] it was 6 nM; in assay [3], 151 nM; in assay [4], 9.09 µM; in assay [5], 12 nM.

Take `[N-]=[N+]=Nc1ccc(NCC[C@H]2CC[C@@H](CCN3C[C@H](O)[C@@H](O)[C@H](O)[C@H]3CO)CC2)c([N+](=O)[O-])c1` [Compound 1106, (2R,3R,4R,5S)-2-(hydroxymethyl)-1-{2-[(1s,4s)-4-{2-[(4-azido-2-nitrophenyl)amino]ethyl}cyclohexyl]ethyl}piperidine-3,4,5-triol]: the IC50 in assay [1] was found to be 36 nM; in assay [2], 31 nM; in assay [3], 9 nM; in assay [4], 6.97 µM; in assay [5], 6 nM.
